Experimental data from patent US20210368793A1, “Method for Controlling PPO Resistant Weeds” (BASF SE, priority 2016, published 2021).

Experiments:
Type in all cases: in vivo
[1] = system: Amaranthus tamariscinus (common waterhemp, AMATA), sensitive biotype (w.1); experiment: Greenhouse herbicidal test, sensitive common waterhemp (w.1); conditions: for Weed control (%) w.1: sensitive biotype, scale 0 (no damage) to 100 (complete destruction)
Excerpt: (§1) The culture containers used were plastic flowerpots containing loamy sand with approximately 3.0% of humus as the substrate. The seeds of the test plants were sown separately for each species and/or resistant biotype. For the pre-emergence treatment, the active ingredients, which had been suspended or emulsified in water, were applied directly after sowing by means of finely distributing nozzles. The containers were irrigated gently to promote germination and growth and subsequently covered with transparent plastic hoods until the plants had rooted. This cover caused uniform germination of the test plants, unless this had been impaired by the active ingredients. For the post-emergence treatment, the test plants were first grown to a height of 3 to 15 cm, depending on the plant habit, and only then treated with the active ingredients which had been suspended or emulsified in water. For this purpose, the test plants were either sown directly and grown in the same containers, or they were first grown separately as seedlings and transplanted into the test containers a few days prior to treatment. Depending on the species, the plants were kept at 10-25° C. or 20-35° C., respectively. The test period extended over 2 to 4 weeks. During this time, the plants were tended, and their response to the individual treatments was evaluated. The evaluation was carried out by using a scale from 0 to 100. 100 means no emergence of the plants or complete destruction of at least the above-ground parts, and 0 means no damage, or normal course of growth.
(§2) The plants used in the greenhouse experiments were of the following species and biotype: […]

[2] = system: Amaranthus tamariscinus (common waterhemp, AMATA), PPO resistant biotype 1 containing the ΔG210 mutation (w.2); experiment: Greenhouse herbicidal test, PPO resistant common waterhemp biotype 1 (w.2); conditions: for activity on resistant weeds (w.2), in words: summary of the table, 2 and 4 g/ha, ΔG210 mutation; for Weed control (%) w.2: PPO resistant biotype 1 (ΔG210), scale 0 to 100
Excerpt: as §1, §2

[3] = system: Amaranthus tamariscinus (common waterhemp, AMATA), PPO resistant biotype 2 containing the ΔG210 mutation (w.3); experiment: Greenhouse herbicidal test, PPO resistant common waterhemp biotype 2 (w.3); conditions: for activity on resistant weeds (w.3), in words: summary of the table, 2 and 4 g/ha, ΔG210 mutation; for Weed control (%) w.3: PPO resistant biotype 2 (ΔG210), scale 0 to 100
Excerpt: as §1, §2

Row | Compound | activity on sensitive weeds (w.1), in words ([1]; summary of the table, 2 and 4 g/ha) | Weed control (%) w.1 ([1]; use rate 2 g/ha) | Weed control (%) w.1 ([1]; use rate 4 g/ha) | activity on resistant weeds (w.2), in words [2] | Weed control (%) w.2 ([2]; use rate 2 g/ha) | Weed control (%) w.2 ([2]; use rate 4 g/ha) | activity on resistant weeds (w.3), in words [3] | Weed control (%) w.3 ([3]; use rate 2 g/ha) | Weed control (%) w.3 ([3]; use rate 4 g/ha)
1 | O=C1[C@H]2C[C@H](F)CN2C(=O)N1c1cc(NS(=O)(=O)CCl)c(Cl)cc1F [(I).1, profluazol] | very good activity | 88% | 100% | very good activity | 78% | 92% | very good activity | 80% | 88%
2 | C#CCOc1cc(-n2nc3n(c2=O)CCCC3)c(Cl)cc1Cl [azafenidin, reference compound] | – | 88% | 100% | much weaker control of resistant in comparison to sensitive biotypes | 62% | 78% | much weaker control of resistant in comparison to sensitive biotypes | 77% | 77%
